# Laboratory results: US20220267376A1, “P53 ACTIVATOR PEPTIDOMIMETIC MACROCYCLES” (Merck Sharp & Dohme Corp., priority 2019, published 2022)
# Entries after “also recorded” stand apart in the source; their conditions may differ. Read-outs that look alike come from different tables or passages of the source. Starred links: 1 amine or outer side, 2 acyl side, 3 side chain; linkers in the order of their positions; H or OH if unused. Positions of bridges follow the written chain, without caps; N, C: chain ends. Non-standard residues stand in square brackets, D forms with d. Residues, ends and D or L forms follow the SMILES beside them. ξ: configuration not given here. dPhe(4-CF3) = N[C@H](Cc1ccc(C(F)(F)F)cc1)C(=O)O; dTrp(6-F) = N[C@H](Cc1c[nH]c2cc(F)ccc12)C(=O)O; ξPhe(4-CF3) = NC(Cc1ccc(C(F)(F)F)cc1)C(=O)O; X1 = C[C@](CCCCC=[*:3])(N[*:1])C(=O)[*:2]; S8 = C=CCCCCCC[C@](C)(N)C(=O)O; R5 = C=CCCC[C@@](C)(N)C(=O)O
# How the values were obtained:
# [1] = target: T1, MDM2 (Homo sapiens, UniProt Q00987); assay: Surface plasmon resonance (SPR) binding to MDM2; settings: for Kd: MDM2
# T1 construct: GST (N); His6 (N); made in house; host or cells: E. coli BL21 (DE3) Rosetta T1R
# [2] = system: HCT116 p53 reporter cells; assay: p53 beta-lactamase reporter gene assay; assay type: cell-based; settings: for p53 activation in reporter cells: 16 hours, up to 50 μM; for EC50: read-out: P53 activity EC50 (μM) (2% FBS) 16 H, HCT116 p53 reporter, 2% FBS, 16 H
# Protocol: The cells were incubated overnight and followed by removal of cell growth media and replaced with Opti-MEM either containing 0% FBS or 10% FBS. […] Measurements were done using Envision multiplate reader (Perkin-Elmer).
# [3] = Circular dichroism (CD) helicity of peptide in solution; assay type: physicochemical; settings: 25° C.
# Protocol: Prior to the experiment, 5 μl of the 10 mM stock peptide was mixed with 45 μl of 100% methanol, and dried for 2 hours in the SpeedVac concentrator (Thermo Scientific). The dried peptide was reconstituted in buffer, containing 1 mM HEPES pH 7.4 and 5% methanol, to a concentration of 1 mM. The peptide sample was placed in a quartz cuvette with a path length of 0.2 cm and the CD spectrum was recorded from 300 to 190 nm at 25° C., using the Chirascan-plus qCD machine (Applied Photophysics). […] An estimate of the secondary stmcture components of the peptide was carried out by converting the CD spectrum to mean residue ellipticity, before deconvoluting using the CDNN software (distributed by Applied Photophysics). All experiments were done in duplicates.
# [4] = target: T1, MDM2; assay: MDM2 binding assay, fluorescence polarization (FP) competition; settings: for Kd: apparent Kd, competition with FAM-labeled 12/1 peptide
# [5] = target: T2, MDM4 (Homo sapiens, UniProt O15151); assay: Fluorescence polarization (FP) binding to MDM4/MDMX
# T2 construct: GST; made in house
# T2 sequence (O15151 1-490): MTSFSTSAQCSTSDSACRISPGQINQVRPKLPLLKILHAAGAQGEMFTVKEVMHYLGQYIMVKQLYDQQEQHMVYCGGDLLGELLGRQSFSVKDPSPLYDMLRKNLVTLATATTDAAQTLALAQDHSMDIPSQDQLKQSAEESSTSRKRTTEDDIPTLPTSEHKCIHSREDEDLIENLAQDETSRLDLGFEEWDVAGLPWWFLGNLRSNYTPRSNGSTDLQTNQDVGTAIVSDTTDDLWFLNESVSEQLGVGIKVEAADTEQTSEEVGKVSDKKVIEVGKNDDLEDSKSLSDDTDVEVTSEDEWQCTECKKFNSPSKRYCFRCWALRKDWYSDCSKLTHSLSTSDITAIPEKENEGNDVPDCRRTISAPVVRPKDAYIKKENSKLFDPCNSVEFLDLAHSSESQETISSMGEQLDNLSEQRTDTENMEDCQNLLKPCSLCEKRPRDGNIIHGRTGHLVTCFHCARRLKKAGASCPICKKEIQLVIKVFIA
# [6] = system: Jump-In™ T-REx™ CHO-K1 BLA cells; assay: Tetracycline beta-lactamase reporter gene assay (counterscreen); assay type: cell-based; settings: for EC50: read-out: Counterscreen EC50 (μM) (2% FBS) 16 H, 2% FBS, 16 H
# Protocol: Cells were seeded into a 384-well plate a density of 4000 cells per well. […] Measurements were carried out using Envision multiplate reader (Perkin-Elmer).
# [7] = target: human MDM2 protein (amino acids 1-125) (Homo sapiens, UniProt Q00987); assay: Isothermal titration calorimetry (ITC) with MDM2; assay type: binding; set-up: purified recombinant human MDM2 protein (amino acids 1-125); GST (N); His6 (N); TEV cleavage site ENLYFQG (N); made in house; host or cells: E. coli BL21 (DE3) Rosetta T1R; settings: for ITC TΔS / ITC ΔG: binding to MDM2; for ITC ΔH: enthalpy of binding to MDM2
# Chain of human MDM2 protein (amino acids 1-125) (Q00987 1-125): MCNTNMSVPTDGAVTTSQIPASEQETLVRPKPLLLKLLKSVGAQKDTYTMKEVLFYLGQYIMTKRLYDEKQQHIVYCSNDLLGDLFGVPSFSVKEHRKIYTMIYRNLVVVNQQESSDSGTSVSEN
# Protocol: All experiments were performed in duplicates using the MicroCal PEAQ-ITC Automated system. […] For peptides that are insoluble at high concentrations, reverse ITC was carded out by titrating 200 μM of MDM2 protein into 20 μM of peptide. […] Data analysis was carried out using the MicroCal PEAQ-ITC Analysis Software.
# [8] = system: HCT116 cells; assay: Lactate dehydrogenase (LDH) release assay; assay type: cell-based; settings: up to 50 μM
# Protocol: The cells were incubated overnight followed by removal of cell media and addition of Opti-MEM Medium without FBS. Cells were then treated with peptides for 4/16 hours in Opti-MEM either in 10% FBS or serum free. Final concentration of DMSO was 0.5%. […] Measurements were carried out using Tecan plate reader.
Compound,binding to MDM2 in SPR [1],Kd ([1]; Table 1) [µM],Kd ([1]; Table 2) [µM],p53 activation in reporter cells [2],CD (% helicity) [3] [%],binding to MDM2 in FP assay [4],binding to MDMX in FP assay [5],EC50 [6] [µM],ITC TΔS [7] [kJ/mol],ITC ΔG [7] [kJ/mol],ITC ΔH [7] [kJ/mol],EC50 [2] [µM],EC50 ([2]; listed as DPMI-δ(1-5)) [µM],Kd [4] [nM],"Kd ([5]; FP assay, MDM4 (MDMX)) [nM]",counterscreen activity [6],LDH leakage [8]
CC(C)C[C@@H](NC(=O)[C@@H](CC(C)C)NC(=O)[C@@H](CCCCN)NC(=O)[C@@H](CCC(=O)O)NC(=O)[C@@H](Cc1ccc(C(F)(F)F)cc1)NC(=O)[C@@]1(C)CCC/C=C\CCC[C@@](C)(NC(=O)[C@H](N)[C@H](C)O)C(=O)N[C@H](Cc2c[nH]c3cc(F)ccc23)C(=O)N[C@H](Cc2ccc(O)cc2)C(=O)N[C@H](C)C(=O)N1)C(=O)N[C@H](CCCNC(=N)N)C(N)=O [^DPMI-δ (2-6)] (H-[dT][R5][dTrp(6-F)][dY][dA][R5][dPhe(4-CF3)][dE][dK][dL][dL][dR]-NH2; staple (Z) 2-6),non-binder,> 0.5,> 0.5,unable to activate cellular p53,46.7,no binding,no binding,13.9,–,–,–,–,–,–,–,–,–
CC(C)C[C@@H](NC(=O)[C@@H](CC(C)C)NC(=O)[C@@H](CCCCN)NC(=O)[C@@H](CCC(=O)O)NC(=O)[C@@H](Cc1ccc(C(F)(F)F)cc1)NC(=O)[C@@H](CC(N)=O)NC(=O)[C@@]1(C)CCCCCC/C=C\CCC[C@@](C)(N)C(=O)N[C@H](C)C(=O)N[C@H](Cc2c[nH]c3cc(F)ccc23)C(=O)N[C@H](Cc2ccc(O)cc2)C(=O)N1)C(=O)N[C@H](CCCNC(=N)N)C(N)=O [^DPMI-δ (1-5)],–,< 0.001,< 0.001,–,24.7,–,–,≥ 50,12.7,-48.5,-66.1,13.7,17.5,13.2,4.5,didn't exhibit activity,–
CC(C)C[C@@H](NC(=O)[C@@]1(C)CCC/C=C\CCC[C@@](C)(NC(=O)[C@@H](C)NC(=O)[C@@H](Cc2ccc(O)cc2)NC(=O)[C@@H](Cc2c[nH]c3cc(F)ccc23)NC(=O)[C@@H](C)NC(=O)[C@H](N)[C@H](C)O)C(=O)N[C@H](Cc2ccc(C(F)(F)F)cc2)C(=O)N[C@H](CCC(=O)O)C(=O)N[C@H](CCCCN)C(=O)N1)C(=O)N[C@H](CCCNC(=N)N)C(N)=O [^DPMI-δ (6-10)],–,0.059,–,–,39.9,no binding; also recorded: non-binder,no binding,–,-7.78,-46.9,-39.1,–,–,–,–,–,–
CC(C)C[C@@H](NC(=O)[C@@H](CC(C)C)NC(=O)[C@@]1(C)CCC/C=C\CCCCCC[C@](C)(NC(=O)[C@H](N)[C@H](C)O)C(=O)N[C@H](Cc2c[nH]c3cc(F)ccc23)C(=O)N[C@H](Cc2ccc(O)cc2)C(=O)N[C@H](C)C(=O)N[C@H](CC(N)=O)C(=O)NC(Cc2ccc(C(F)(F)F)cc2)C(=O)N[C@H](CCC(=O)O)C(=O)N1)C(=O)N[C@H](CCCNC(=N)N)C(N)=O (stereo partly drawn) [^DPMI-(2-9)] (H-[dT][S8][dTrp(6-F)][dY][dA][dN][ξPhe(4-CF3)][dE][R5][dL][dL][dR]-NH2; staple (Z) 2-9),–,0.0074,–,unable to activate cellular p53,26.5,no binding,no binding,≥ 50,–,–,–,–,–,3350,–,–,did not cause LDH leakage
CC(C)C[C@@H](NC(=O)[C@@H](CC(C)C)NC(=O)[C@@]1(C)CCCC/C=C\CCC[C@@](C)(NC(=O)[C@@H](Cc2ccc(O)cc2)NC(=O)[C@@H](Cc2c[nH]c3cc(F)ccc23)NC(=O)[C@@H](C)NC(=O)[C@H](N)[C@H](C)O)C(=O)N[C@H](CC(N)=O)C(=O)N[C@H](Cc2ccc(C(F)(F)F)cc2)C(=O)N[C@H](CCC(=O)O)C(=O)N1)C(=O)N[C@H](CCCNC(=N)N)C(N)=O [^DPMI-δ (5-9)] (H-[dT][dA][dTrp(6-F)][dY][R5][dN][dPhe(4-CF3)][dE][X1][dL][dL][dR]-NH2; staple (Z) 5-9),–,0.029,–,unable to activate cellular p53,38.0,no binding,no binding,47,–,–,–,–,–,–,–,–,did not cause LDH leakage
"CC(C)C[C@@H](NC(=O)[C@@H](CC(C)C)NC(=O)[C@@H](CCCCN)NC(=O)[C@@H](CCC(=O)O)NC(=O)[C@@H](Cc1ccc(C(F)(F)F)cc1)NC(=O)[C@@H](CC(N)=O)NC(=O)[C@@H](C)NC(=O)[C@@H](Cc1ccc(O)cc1)NC(=O)[C@@H](Cc1c[nH]c2cc(F)ccc12)NC(=O)[C@@H](C)NC(=O)[C@H](N)[C@H](C)O)C(=O)N[C@H](CCCNC(=N)N)C(N)=O [^DPMI-δ, reference compound]",–,–,–,no p53 activation,–,–,–,–,–,–,–,–,–,–,–,–,–
